Assay [1] deals with T1, nociceptin/ORL1 receptors (Rattus norvegicus, UniProt P35370).
T1 construct: rats are sacrificed by cervical dislocation and the hypothalamus is removed; from tissue; host or cells: rat hypothalamus (in vivo occupancy)
The experiment in a line: In vivo receptor occupancy (LC/MS/MS, RO Tracer) in hypothalamus. Particulars: oral 3 mg/kg dose after 6 hr.

Assay [2] addresses human ERG (hERG) K+ channel (Homo sapiens, UniProt Q12809). Kind of assay: hERG channel [3H]astemizole binding assay. Particulars: HEK293 cells expressing cloned hERG, [3H]astemizole 2 nM; read-out: Ki for hERG K+ channel. As to the method: Blockade of K^+-channel conductance in the heart is associated with cardiotoxicity in the form of QT-wave prolongation. The affinity (Ki) of the exemplified nociceptin receptor antagonists for the human ERG (hERG) K^+ channel is determined in HEK293 cells expressing cloned hERG using the hERG channel antagonist radioligand [3H]astemizole (2 nM final assay concentration) according to well known procedures (see for example Finlayson K, et al. (Eur J Pharmacol. 412(3):203-12, 2001) [3H]Astemizole binding assays are performed at the contract research company Cerep (Paris France) according to standard procedures.
(hERG is a cardiac potassium channel; its block is linked to QT prolongation.)

For assay [3], the target named is T2, cloned human ORL1 receptors (Homo sapiens, UniProt P41146).
T2 construct: expressed in transfected cells; host or cells: CHO cells (membranes)
T2 sequence (P41146 whole entry): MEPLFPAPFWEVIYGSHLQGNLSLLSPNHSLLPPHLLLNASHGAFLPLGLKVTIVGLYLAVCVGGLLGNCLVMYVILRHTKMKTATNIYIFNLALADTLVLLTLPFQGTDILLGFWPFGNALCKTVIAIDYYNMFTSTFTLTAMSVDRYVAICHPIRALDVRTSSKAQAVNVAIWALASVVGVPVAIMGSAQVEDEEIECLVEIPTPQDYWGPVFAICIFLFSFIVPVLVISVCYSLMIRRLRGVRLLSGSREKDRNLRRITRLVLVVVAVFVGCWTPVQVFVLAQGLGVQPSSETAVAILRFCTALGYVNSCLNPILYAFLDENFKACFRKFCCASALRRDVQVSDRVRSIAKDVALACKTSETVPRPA
The experiment in a line: [3H]-OFQ/nociceptin receptor binding assay. As to the method:
(§1) Radioligand binding assays are commonly used to determine the affinity (Ki) or potency of a compound to bind to a particular receptor or target protein. A filtration-based [3H]-OFQ/nociceptin receptor binding assay is developed based on previous assay formats (Ardati A, Henningsen R A, Higelin J, Reinscheid R K, Civelli O, Monsma F J Jr. Mol. Pharmacol. 1997 May; 51(5):816-24.) with minor modifications. [3H]-OFQ/nociceptin binding assays are carried out in deep-well 96-well plates. [^3H]OFQ (final assay concentration 0.2 nM) competition studies are carried out with 5-10 μg of membrane protein (isolated from Chinese hamster ovary cells (CHO cells) expressing cloned human ORL1 receptors) in a final assay volume of 0.5 mL of buffer containing 20 mM HEPES, pH 7.4, 5 mM MgCl2, 1 mM EGTA, 100 mM NaCl, 0.1% bovine serum albumin. Samples are incubated for 60 min. at room temperature, which is found to be optimal for competition assays. The assays are terminated by filtration through glass fiber filters (Wallac filtermat A) [pretreated with 0.3% polyethylenimine (Sigma) for 1 hr] on a Tometc cell harvester, and the filters are washed three times with 5 mL of ice-cold 50 mM Tris.HCl, pH 7.4. Filtermats are then dried and imbedded with Meltilex scintillant A and the radioactivity counted in a Wallac Microbeta scintillation counter. Specific binding is determined by displacement with 100 nM unlabeled nociceptin. Curves are plotted as the percent of specific binding and IC50 values are determined using a sigmoidal dose response curve with variable slope. K, values are calculated from the IC50 by the equation of Cheng and Prusoff (Cheng, Y. C., and Prusoff, W. H., Biochem. Pharmacol. 22, 3099-3108 (1973)) where Ki=IC50×(1+D×Kd^−1)^−1. Similarly, Ki for the mu, kappa and delta opioids, serotonin, adrenergic, and muscarinic receptors may be determined using membranes expressing the desired receptor and appropriate corresponding radioligand competitor molecules.

The target in the next assay is Muscarinic M2 (Homo sapiens, UniProt P08172). Kind of assay: Radioligand binding selectivity. The method, then: as §1
In another assay the target is 5-HT2B (Homo sapiens, UniProt P41595). Kind of assay: Radioligand binding selectivity. As to the method:
as §1

Another assay concerns the target Muscarinic M4 (Homo sapiens, UniProt P08173). Kind of assay: Radioligand binding selectivity. As to the method: as §1
For another assay, the target named is Delta Opioid (Homo sapiens, UniProt P41143). The experiment in a line: Radioligand binding selectivity. The method, then: as §1
Delta Opioid, sequence (P41143 whole entry): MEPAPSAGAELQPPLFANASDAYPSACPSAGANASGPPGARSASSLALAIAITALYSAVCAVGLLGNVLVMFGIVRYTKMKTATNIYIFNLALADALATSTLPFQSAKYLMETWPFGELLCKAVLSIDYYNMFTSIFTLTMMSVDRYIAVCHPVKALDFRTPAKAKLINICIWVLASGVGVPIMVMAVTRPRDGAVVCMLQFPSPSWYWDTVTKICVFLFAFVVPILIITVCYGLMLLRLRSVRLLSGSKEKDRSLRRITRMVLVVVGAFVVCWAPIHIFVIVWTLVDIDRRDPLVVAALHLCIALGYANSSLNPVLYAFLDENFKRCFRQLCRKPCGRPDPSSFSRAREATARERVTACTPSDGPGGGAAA
Another assay concerns the target 5-HT5 (Homo sapiens, UniProt P47898). Kind of assay: Radioligand binding selectivity. The method, then: as §1
A further assay deals with 5-HT4 (Homo sapiens, UniProt Q13639). Kind of assay: Radioligand binding selectivity. The method, then:
as §1

The target in the next assay is 5-HT1D (Homo sapiens, UniProt P28221). Kind of assay: Radioligand binding selectivity. The method, then:
as §1

The target in another assay is Muscarinic M5 (Homo sapiens, UniProt P08912). Kind of assay: Radioligand binding selectivity. As to the method: as §1
A further assay addresses 5-HT1E (Homo sapiens, UniProt P28566). Kind of assay: Radioligand binding selectivity. The method, then: as §1
A further assay deals with 5-HT2C (Homo sapiens, UniProt P28335). Kind of assay: Radioligand binding selectivity. As to the method:
as §1

The target of a further assay is Mu Opioid (Homo sapiens, UniProt P35372). Kind of assay: Radioligand binding selectivity. The method, then:
as §1

For a further assay, the target named is 5-HT1A (Homo sapiens, UniProt P08908). The experiment in a line: Radioligand binding selectivity. As to the method:
as §1

The target of another assay is Muscarinic M1 (Homo sapiens, UniProt P11229). The experiment in a line: Radioligand binding selectivity. The method, then:
as §1

The next assay deals with 5-HT2A (Homo sapiens, UniProt P28223). The experiment in a line: Radioligand binding selectivity. As to the method: as §1
The target of a further assay is 5-HT6 (Homo sapiens, UniProt P50406). The experiment in a line: Radioligand binding selectivity. As to the method:
as §1

Another assay has as its target Muscarinic M3 (Homo sapiens, UniProt P20309). Kind of assay: Radioligand binding selectivity. The method, then: as §1
In another assay the target is 5-HT7 (Homo sapiens, UniProt P34969). The experiment in a line: Radioligand binding selectivity. As to the method: as §1
Another assay concerns the target 5-HT1B (Homo sapiens, UniProt P28222). Kind of assay: Radioligand binding selectivity. As to the method: as §1
In the next assay the target is Kappa Opioid (Homo sapiens, UniProt P41145). Kind of assay: Radioligand binding selectivity. The method, then: as §1
Kappa Opioid, sequence (P41145 whole entry): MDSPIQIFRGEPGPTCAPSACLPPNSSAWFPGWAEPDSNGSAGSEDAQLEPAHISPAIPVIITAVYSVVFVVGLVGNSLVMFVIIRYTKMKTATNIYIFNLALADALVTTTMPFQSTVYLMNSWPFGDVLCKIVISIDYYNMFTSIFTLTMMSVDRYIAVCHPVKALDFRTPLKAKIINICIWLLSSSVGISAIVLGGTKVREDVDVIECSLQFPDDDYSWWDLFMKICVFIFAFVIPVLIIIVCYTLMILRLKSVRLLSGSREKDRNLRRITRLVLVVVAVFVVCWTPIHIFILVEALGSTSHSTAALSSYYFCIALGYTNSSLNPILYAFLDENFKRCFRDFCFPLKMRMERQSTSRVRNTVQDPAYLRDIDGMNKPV
The target of another assay is Adenosine A3 (Homo sapiens, UniProt P0DMS8). Kind of assay: Radioligand binding selectivity.
Adenosine A3, sequence (P0DMS8 whole entry): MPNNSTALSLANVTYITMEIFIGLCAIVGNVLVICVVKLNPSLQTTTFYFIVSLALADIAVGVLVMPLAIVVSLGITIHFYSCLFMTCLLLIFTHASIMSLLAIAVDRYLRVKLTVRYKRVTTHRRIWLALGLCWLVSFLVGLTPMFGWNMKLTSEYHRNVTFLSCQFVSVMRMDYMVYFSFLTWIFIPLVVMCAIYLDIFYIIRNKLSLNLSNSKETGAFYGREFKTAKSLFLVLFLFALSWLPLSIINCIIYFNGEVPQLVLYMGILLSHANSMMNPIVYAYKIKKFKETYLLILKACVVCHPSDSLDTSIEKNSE

Here are results for one compound from US20120214784A1, “SPIROPIPERIDINE COMPOUNDS AS ORL-1 RECEPTOR ANTAGONISTS” (ELI LILLY AND COMPANY, priority 2009, published 2012).

As usually defined, the Ki is the equilibrium dissociation constant of an inhibitor or competing ligand from its target.

5-HT4, sequence (Q13639 whole entry, species assumed): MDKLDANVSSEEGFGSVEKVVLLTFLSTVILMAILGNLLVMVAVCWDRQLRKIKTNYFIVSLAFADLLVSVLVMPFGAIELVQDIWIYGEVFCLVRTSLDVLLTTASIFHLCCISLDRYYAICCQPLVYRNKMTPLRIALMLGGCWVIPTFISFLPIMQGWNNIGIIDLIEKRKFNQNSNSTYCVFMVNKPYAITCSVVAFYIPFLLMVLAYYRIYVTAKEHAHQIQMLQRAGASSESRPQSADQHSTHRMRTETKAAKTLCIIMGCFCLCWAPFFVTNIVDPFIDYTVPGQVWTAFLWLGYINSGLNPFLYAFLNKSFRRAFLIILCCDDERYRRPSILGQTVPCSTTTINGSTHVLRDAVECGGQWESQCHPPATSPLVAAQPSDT
Mu Opioid, sequence (P35372 whole entry): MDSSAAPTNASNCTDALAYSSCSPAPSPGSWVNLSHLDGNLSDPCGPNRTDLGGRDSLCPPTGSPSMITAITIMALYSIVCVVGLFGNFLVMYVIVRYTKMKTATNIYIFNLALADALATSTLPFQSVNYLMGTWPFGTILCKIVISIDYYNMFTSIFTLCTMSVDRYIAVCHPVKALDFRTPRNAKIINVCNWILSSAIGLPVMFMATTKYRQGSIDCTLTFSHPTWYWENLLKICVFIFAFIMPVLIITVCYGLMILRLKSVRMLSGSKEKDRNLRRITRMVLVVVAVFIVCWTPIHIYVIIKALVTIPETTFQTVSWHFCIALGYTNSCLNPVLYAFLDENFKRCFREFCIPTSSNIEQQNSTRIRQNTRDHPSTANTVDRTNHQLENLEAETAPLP
human ERG (hERG) K+ channel, sequence (Q12809 whole entry): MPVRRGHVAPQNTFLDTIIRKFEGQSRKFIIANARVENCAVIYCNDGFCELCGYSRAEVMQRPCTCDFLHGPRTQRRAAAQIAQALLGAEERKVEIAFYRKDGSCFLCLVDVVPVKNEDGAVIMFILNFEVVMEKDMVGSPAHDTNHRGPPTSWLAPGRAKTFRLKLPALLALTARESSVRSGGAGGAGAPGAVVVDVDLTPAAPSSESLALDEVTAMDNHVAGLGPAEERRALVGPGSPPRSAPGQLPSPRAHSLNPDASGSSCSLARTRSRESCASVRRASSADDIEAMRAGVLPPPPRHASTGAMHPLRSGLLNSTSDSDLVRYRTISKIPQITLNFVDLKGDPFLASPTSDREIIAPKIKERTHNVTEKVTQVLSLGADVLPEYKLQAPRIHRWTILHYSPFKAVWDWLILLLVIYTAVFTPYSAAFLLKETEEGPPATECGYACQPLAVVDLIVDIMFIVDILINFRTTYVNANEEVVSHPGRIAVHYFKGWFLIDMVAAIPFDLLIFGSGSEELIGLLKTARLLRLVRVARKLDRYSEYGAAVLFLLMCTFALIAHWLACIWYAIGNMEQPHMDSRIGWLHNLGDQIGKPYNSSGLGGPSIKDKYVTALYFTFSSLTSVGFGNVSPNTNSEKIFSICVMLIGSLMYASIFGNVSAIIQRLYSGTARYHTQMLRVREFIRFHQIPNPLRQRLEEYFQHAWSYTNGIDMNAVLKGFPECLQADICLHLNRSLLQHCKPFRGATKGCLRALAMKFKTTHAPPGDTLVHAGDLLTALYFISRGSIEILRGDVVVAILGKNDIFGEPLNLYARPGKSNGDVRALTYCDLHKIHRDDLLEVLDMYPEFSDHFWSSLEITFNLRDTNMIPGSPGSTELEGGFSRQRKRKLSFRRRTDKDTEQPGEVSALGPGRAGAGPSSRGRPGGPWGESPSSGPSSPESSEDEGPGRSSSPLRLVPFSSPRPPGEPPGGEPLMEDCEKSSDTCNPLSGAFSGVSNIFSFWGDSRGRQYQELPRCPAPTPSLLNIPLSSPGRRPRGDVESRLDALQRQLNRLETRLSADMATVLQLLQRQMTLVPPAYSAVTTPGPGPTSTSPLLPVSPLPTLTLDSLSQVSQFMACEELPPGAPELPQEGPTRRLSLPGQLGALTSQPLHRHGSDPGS
5-HT1B, sequence (P28222 whole entry, species assumed): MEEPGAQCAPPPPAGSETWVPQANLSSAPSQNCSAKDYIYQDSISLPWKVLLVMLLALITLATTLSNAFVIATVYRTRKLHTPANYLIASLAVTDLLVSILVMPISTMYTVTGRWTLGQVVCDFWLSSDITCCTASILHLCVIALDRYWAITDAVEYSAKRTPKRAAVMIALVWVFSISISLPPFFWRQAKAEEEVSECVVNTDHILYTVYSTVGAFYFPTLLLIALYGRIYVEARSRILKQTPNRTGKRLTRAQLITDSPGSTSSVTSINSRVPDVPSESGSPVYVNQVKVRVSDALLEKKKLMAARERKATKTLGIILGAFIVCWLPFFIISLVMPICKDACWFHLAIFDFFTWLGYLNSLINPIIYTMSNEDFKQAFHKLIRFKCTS
5-HT1D, sequence (P28221 whole entry, species assumed): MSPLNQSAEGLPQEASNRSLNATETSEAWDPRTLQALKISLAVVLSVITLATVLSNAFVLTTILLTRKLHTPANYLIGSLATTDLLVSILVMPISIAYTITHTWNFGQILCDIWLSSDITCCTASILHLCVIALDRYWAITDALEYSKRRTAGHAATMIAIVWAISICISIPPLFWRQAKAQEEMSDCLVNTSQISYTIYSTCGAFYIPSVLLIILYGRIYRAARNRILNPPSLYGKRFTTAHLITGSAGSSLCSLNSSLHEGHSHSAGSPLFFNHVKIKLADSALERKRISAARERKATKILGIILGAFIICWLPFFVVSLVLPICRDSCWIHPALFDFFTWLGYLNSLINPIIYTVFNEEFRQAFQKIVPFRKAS
T1 sequence (P35370 whole entry): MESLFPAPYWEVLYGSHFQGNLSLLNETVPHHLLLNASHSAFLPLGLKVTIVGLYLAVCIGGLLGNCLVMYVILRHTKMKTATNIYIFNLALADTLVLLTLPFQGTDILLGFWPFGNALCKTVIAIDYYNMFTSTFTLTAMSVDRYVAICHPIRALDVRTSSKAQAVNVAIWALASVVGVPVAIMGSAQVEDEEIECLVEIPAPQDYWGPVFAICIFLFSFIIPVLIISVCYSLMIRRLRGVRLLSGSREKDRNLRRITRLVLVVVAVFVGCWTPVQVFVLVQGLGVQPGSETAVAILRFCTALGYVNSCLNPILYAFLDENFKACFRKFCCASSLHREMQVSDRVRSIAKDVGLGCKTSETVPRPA
5-HT1E, sequence (P28566 whole entry, species assumed): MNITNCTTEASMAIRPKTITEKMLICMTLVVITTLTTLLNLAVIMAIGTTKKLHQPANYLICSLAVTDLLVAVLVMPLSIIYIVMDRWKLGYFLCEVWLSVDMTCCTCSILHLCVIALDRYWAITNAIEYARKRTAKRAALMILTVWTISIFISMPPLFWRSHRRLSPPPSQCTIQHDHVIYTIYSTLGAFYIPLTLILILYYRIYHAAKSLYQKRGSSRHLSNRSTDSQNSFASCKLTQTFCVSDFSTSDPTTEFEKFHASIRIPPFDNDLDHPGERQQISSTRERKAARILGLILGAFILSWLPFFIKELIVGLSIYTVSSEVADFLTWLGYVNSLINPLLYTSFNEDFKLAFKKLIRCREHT

In turn, `Cc1nn(-c2c(F)cccc2F)cc1CN1CCC2(CC1)OCC(F)(F)c1cc(Cl)sc12.O=C(O)C(O)C(O)C(=O)O` [Example 2, 2-Chloro-1′-[[1-(2,6-difluorophenyl)-3-methyl-pyrazol-4-yl]methyl]-4,4-difluoro-spiro[5H-thieno[2,3-c]pyran-7,4′-piperidine] (L)-Tartrate] registered a receptor occupancy at 3 mg/kg in assay [1] of 76%. In addition, the Ki is 2.89 µM in assay [2]; 0.00017 µM in assay [3]; more than 8 µM on Muscarinic M2; 1.16 µM on 5-HT2B; 6.36 µM at Muscarinic M4; more than 0.481 µM on Delta Opioid. In addition, the Ki is more than 9.02 µM on 5-HT5; more than 1.97 µM at 5-HT4; more than 7.89 µM on 5-HT1D; 2.8 µM on Muscarinic M5; more than 5.37 µM on 5-HT1E; more than 8.36 µM on 5-HT2C. Moreover, the Ki on Mu Opioid is more than 0.467 µM; on 5-HT1A, more than 3.18 µM; at Muscarinic M1 it was 1.38 µM; at 5-HT2A it was more than 7.18 µM; on 5-HT6, more than 5.83 µM; on Muscarinic M3 it was more than 24.2 µM. Besides, the Ki at 5-HT7 was more than 3.98 µM; at 5-HT1B, more than 3.58 µM; on Kappa Opioid it was more than 0.458 µM; at Adenosine A3, 2.3 µM.
